According to US9163020B2, “Azaindole compounds, synthesis thereof, and methods of using the same” (Global Alliance for TB Drug Development, priority 2013, dated 2015):
Converted amounts (≈) assume the structure as drawn. Like-named read-outs stand apart in the source and are kept apart here.

What was measured:
[1] = system: Mtb DprE1 C387S; type: cell-based, Mycobacterium tuberculosis
[2] = system: Mycobacterium tuberculosis (Mtb) H37Rv ATCC 27294; assay: microbe, parasite or virus in culture; type: cell-based; conditions: read-out: MIC, Mtb H37Rv
[3] = system: Mtb DprE1 Y314H; type: cell-based, Mycobacterium tuberculosis
[4] = system: Mtb DprE1 OE; assay: microbe, parasite or virus in culture; type: cell-based, Mycobacterium tuberculosis
[5] = system: Mtb DprE1 C387G; type: cell-based, Mycobacterium tuberculosis
[6] = Mycobacterium tuberculosis, DPRE1OE, read-out: MIC, Mtb DprE1 OE
[7] = Mycobacterium tuberculosis, DPRE1OE, Table 5, read-out: Mtb DprE1 OE MIC

With C[C@H]1COC2(CCN(c3nc(=O)c4cc(C(F)(F)F)cc([N+](=O)[O-])c4s3)CC2)O1 [BTZ043] the “MIC, Mtb DprE1 C387S” value [1] was over 0.1 µM, the MIC [2] was 0.003 µM (≈ 0.00129 µg/mL) and the “MIC, Mtb DprE1 Y314H” value [3] was 0.0015 to 0.003 µM. For the same compound, the “cross-resistance to mutant strain (Tyr314His)” value [3] was “resistance was not observed”, the MIC [4, 6] was 50 µM (≈ 21.6 µg/mL) and the “MIC, Mtb DprE1 C387G” value [5] was over 0.1 µM.

For COc1ncnc(Cn2cc(C(=O)NCCF)c3ncccc32)c1C [Compound 3, N-(2-fluoroethyl)-1-((6-methoxy-5-methylpyrimidin-4-yl)methyl)-1H-pyrrolo[3,2-b]pyridine-3-carboxamide], the “MIC, Mtb DprE1 C387S” value [1] was 3.12 µM (≈ 1.07 µg/mL), the MIC [2] was 3.12 µM (≈ 1.07 µg/mL) and the “MIC, Mtb DprE1 Y314H” value [3] was over 100 µM. For the same compound, the MIC [4, 6] was 50 µM (≈ 17.2 µg/mL) and the “MIC, Mtb DprE1 C387G” value [5] was 0.78 µM (≈ 0.268 µg/mL).

COc1ncnc(Cn2cc(C(=O)NCCF)c3ncc(C)cc32)c1C [Compound 8, N-(2-fluoroethyl)-1-((6-methoxy-5-methylpyrimidin-4-yl)methyl)-6-methyl-1H-pyrrolo[3,2-b]pyridine-3-carboxamide] was tested, and the “MIC, Mtb DprE1 C387S” value [1] was 0.39 µM (≈ 0.139 µg/mL), the MIC ([2]; Mycobacterium tuberculosis) was 0.39 µM (≈ 0.139 µg/mL) and the “MIC, Mtb DprE1 Y314H” value [3] was over 200 µM. The MIC [4, 6] was 6.25 µM (≈ 2.23 µg/mL) and the “MIC, Mtb DprE1 C387G” value [5] was 0.39 µM (≈ 0.139 µg/mL).

COc1ncnc(Cn2cc(C(=O)NCCO)c3ncc(C)cc32)c1C [Compound 17, N-(2-hydroxyethyl)-1-((6-methoxy-5-methylpyrimidin-4-yl)methyl)-6-methyl-1H-pyrrolo[3,2-b]pyridine-3-carboxamide] was tested, and the “MIC, Mtb DprE1 C387S” value [1] was 0.39 µM (≈ 0.139 µg/mL), the MIC ([2]; Mycobacterium tuberculosis) was 1.56 µM (≈ 0.554 µg/mL) and the “MIC, Mtb DprE1 Y314H” value [3] was over 200 µM. The MIC [4, 6] was 100 µM (≈ 35.5 µg/mL) and the “MIC, Mtb DprE1 C387G” value [5] was 0.78 µM (≈ 0.277 µg/mL).

For Cc1ccc(Cn2cc(C(=O)NCCF)c3ncccc32)c(C)c1 [Compound 31, 1-(2,4-dimethylbenzyl)-N-(2-fluoroethyl)-1H-pyrrolo[3,2-b]pyridine-3-carboxamide], the “Mtb DprE1 C387S” value [1] was 0.78 µM, the “Mtb DprE1 Y314H MIC” value [3] was 25 µM and the MIC [4, 7] was 25 µM (≈ 8.13 µg/mL). For the same compound, the “Mtb DprE1 C387G MIC” value [5] was 0.78 µM.

For COc1cccc(F)c1Cn1cc(C(=O)NCC2CC2)c2ncccc21 [Compound 32, N-(cyclopropylmethyl)-1-(2-fluoro-6-methoxybenzyl)-1H-pyrrolo[3,2-b]pyridine-3-carboxamide], the “Mtb DprE1 C387S” value [1] was 0.39 µM, the “Mtb DprE1 Y314H MIC” value [3] was 200 µM and the MIC [4, 7] was 50 µM (≈ 17.7 µg/mL). For the same compound, the “Mtb DprE1 C387G MIC” value [5] was 0.39 µM.

In the case of CC[C@@H](CO)NCCN[C@@H](CC)CO [Ethambutol], the “MIC, Mtb DprE1 C387S” value [1] is reported as 2 µM (≈ 0.409 µg/mL), the MIC ([2]; Mycobacterium tuberculosis) is reported as 2 µM (≈ 0.409 µg/mL) and the “MIC, Mtb DprE1 Y314H” value [3] is reported as 2.0 to 4.0 µM. The MIC [4, 6] was 2 µM (≈ 0.409 µg/mL) and the “MIC, Mtb DprE1 C387G” value [5] was 4 µM (≈ 0.817 µg/mL).

For NNC(=O)c1ccncc1 [Isoniazid], the “MIC, Mtb DprE1 C387S” value [1] was 0.06 µM (≈ 0.00823 µg/mL), the MIC ([2]; Mycobacterium tuberculosis) was 0.06 µM (≈ 0.00823 µg/mL) and the “MIC, Mtb DprE1 Y314H” value [3] was 0.06 µM (≈ 0.00823 µg/mL). For the same compound, the MIC [4, 6] was 0.03 µM (≈ 0.00411 µg/mL) and the “MIC, Mtb DprE1 C387G” value [5] was 0.06 µM (≈ 0.00823 µg/mL).

Work on COc1c(N2C[C@@H]3CCCN[C@@H]3C2)c(F)cc2c(=O)c(C(=O)O)cn(C3CC3)c12 [Moxifloxacin, reference compound] yielded an MIC ([2]; Mycobacterium tuberculosis) of 0.125 µM (≈ 0.0502 µg/mL) and an MIC [4, 6] of 0.06 µM (≈ 0.0241 µg/mL).

CC1COc2c(N3CCN(C)CC3)c(F)cc3c(=O)c(C(=O)O)cn1c23 (centres unmarked) [Ofloxacin, reference compound] showed an MIC ([2]; Mycobacterium tuberculosis) of 1 µM (≈ 0.361 µg/mL) and an MIC [4, 6] of 0.5 µM (≈ 0.181 µg/mL).

With CO[C@H]1/C=C/O[C@@]2(C)Oc3c(C)c(O)c4c(O)c(c(/C=N/N5CCN(C)CC5)c(O)c4c3C2=O)NC(=O)/C(C)=C\C=C\[C@H](C)[C@H](O)[C@@H](C)[C@@H](O)[C@@H](C)[C@H](OC(C)=O)[C@@H]1C [Rifampicin] the MIC [4, 6] was 0.003 µM (≈ 0.00247 µg/mL).

COc1nc2ccc(Br)cc2cc1[C@@H](c1ccccc1)[C@@](O)(CCN(C)C)c1cccc2ccccc12 [TMC207] was tested, and the “MIC, Mtb DprE1 C387S” value [1] was 0.3 µM (≈ 0.167 µg/mL), the MIC ([2]; Mycobacterium tuberculosis) was 0.6 µM (≈ 0.333 µg/mL) and the “MIC, Mtb DprE1 Y314H” value [3] was 0.15 to 0.3 µM. The MIC [4, 6] was 0.15 µM (≈ 0.0833 µg/mL) and the “MIC, Mtb DprE1 C387G” value [5] was 0.15 µM (≈ 0.0833 µg/mL).

With Clofazimine the “MIC, Mtb DprE1 C387S” value [1] was 0.03 µM, the MIC [2] was 0.125 µM and the “MIC, Mtb DprE1 Y314H” value [3] was 0.125 µM. The MIC ([4]; read-out: MIC, Mtb DprE1 OE) was 0.06 µM and the “MIC, Mtb DprE1 C387G” value [5] was 0.03 µM.

In the case of D-cycloserine, the “MIC, Mtb DprE1 C387S” value [1] is reported as 8 µM, the MIC [2] is reported as 8 µM and the “MIC, Mtb DprE1 Y314H” value [3] is reported as 8.0 to 16.0 µM. For the same compound, the MIC ([4]; read-out: MIC, Mtb DprE1 OE) was 8 µM and the “MIC, Mtb DprE1 C387G” value [5] was 8 µM.
